Laboratory results taken from patent US5001143A, “Pharmaceutical composition for prophylactic and preventive of ketosis of livestocks” (Nihon Nohyaku Co., Ltd., priority 1983, dated 1991).

Experiments:
[1] = Toxicity, LD50 (male mice); conditions: mouse, in vivo
cows seized by ketosis = assay: Pharmacological test: oral administration of granules to cows seized by ketosis once daily for 6 weeks, blood and urine components with time; format: in vivo; as to Ketone bodies in urine: key: +++: Detected noticeably; ++: Detected clearly; +: Slightly detected; -: Not detected
Method: Pharmacological tests for the active ingredient of pharmaceutical composition of the present invention were conducted, by making the active ingredient into granules as in Example 1 and forcibly administering the granules orally to cows seized by ketosis in a predetermined dose once daily for 6 weeks. Examinations of various check items were made for bloods and urines taken from the cows before and 1, 3 and 6 weeks after the administration. In serum biochemical diagnosis, bloods were taken, coagulated and then subjected to centrifugation (3,000 rpm, 15 min.) to obtain respective serums and these serums were used. Blood sugar level was determined by a method using a glucose oxidase; free fatty acids were determined by an ACS-ACO-POD method; and ketone bodies in blood were determined by a diffusion colorimetry using salicyl aldehyde (THIN-ROBERTSON method). Ketone bodies in urine were determined by the use of Labstix (Sankyo Miles).
50 Parts of a compound No. 6, 15.0 parts of light silicic acid anhydride, 5.0 parts of precipitated calcium carbonate, 5.0 parts of corn starch, 2.0 parts of crystalline cellulose, 5.0 parts of a polyvinyl alcohol and 30 parts of water are homogeneously mixed and kneaded. Then, the mixture is ground, pelletized, dried and sifted to prepare granules. The granules are used for curing of ketosis of cows.

male mice = assay: Toxicity, LD50 (male mice); conditions: male mice
[2] = 100 mg/kg oral once daily, 1 week after adm.
[3] = 100 mg/kg oral once daily, 3 weeks after adm.
[4] = 100 mg/kg oral once daily, 6 weeks after adm.
[5] = 100 mg/kg oral once daily, before adm.
[6] = 25 mg/kg oral once daily, 1 week after adm.
[7] = 25 mg/kg oral once daily, 3 weeks after adm.
[8] = 25 mg/kg oral once daily, 6 weeks after adm.
[9] = 25 mg/kg oral once daily, before adm.
[10] = 50 mg/kg oral once daily, 1 week after adm.
[11] = 50 mg/kg oral once daily, 3 weeks after adm.
[12] = 50 mg/kg oral once daily, 6 weeks after adm.
[13] = 50 mg/kg oral once daily, before adm.
[14] = 77.2 mg/kg oral once daily, 1 week after adm.
[15] = 77.2 mg/kg oral once daily, 3 weeks after adm.
[16] = 77.2 mg/kg oral once daily, 6 weeks after adm.
[17] = 77.2 mg/kg oral once daily, before adm.

SMILES: CC(C)OC(=O)C(C(=O)OC(C)C)=C1SCC[S+]1[O-] (stereo not shown) [compound 7]
- LD50 [1]: > 6000 mg/kg

SMILES: CC(C)OC(=O)C(C(=O)OC(C)C)=C1SCC(O)S1 (stereo not shown) [compound 8]
- Acetoacetic acid in blood (cows seized by ketosis; [2]): 260 µmol/L
- Blood sugar level (cows seized by ketosis; [2]): 48.4 mg/dL
- Free fatty acids in blood (cows seized by ketosis; [2]): 476 μEq/l
- Ketone bodies in urine (cows seized by ketosis; [2]): +
- Acetoacetic acid in blood (cows seized by ketosis; [3]): 586 µmol/L
- Blood sugar level (cows seized by ketosis; [3]): 41.0 mg/dL
- Free fatty acids in blood (cows seized by ketosis; [3]): 747 μEq/l
- Ketone bodies in urine (cows seized by ketosis; [3]): +
- Acetoacetic acid in blood (cows seized by ketosis; [4]): 76 µmol/L
- Blood sugar level (cows seized by ketosis; [4]): 53.5 mg/dL
- Free fatty acids in blood (cows seized by ketosis; [4]): 371 μEq/l
- Ketone bodies in urine (cows seized by ketosis; [4]): -
- Acetoacetic acid in blood (cows seized by ketosis; [5]): 1,232 μmol/l
- Blood sugar level (cows seized by ketosis; [5]): 32.0 mg/dL
- Free fatty acids in blood (cows seized by ketosis; [5]): 1,727 μEq/l
- Ketone bodies in urine (cows seized by ketosis; [5]): +++
- LD50 [1]: > 6590 mg/kg

SMILES: CC(C)OC(=O)C(C(=O)OC(C)C)=C1SCS1 [compound 1]
- LD50 [1]: > 5000 mg/kg

SMILES: CC(C)OC(=O)C(C(=O)OC(C)C)=C1SCCS1 [compound 6, diisopropyl 1,3-dithiolan-2-ylindene malonate]
- Acetoacetic acid in blood (cows seized by ketosis; [6]): 630 µmol/L
- Blood sugar level (cows seized by ketosis; [6]): 23.5 mg/dL
- Free fatty acids in blood (cows seized by ketosis; [6]): 550 μEq/l
- Ketone bodies in urine (cows seized by ketosis; [6]): ++
- Acetoacetic acid in blood (cows seized by ketosis; [7]): 156 µmol/L
- Blood sugar level (cows seized by ketosis; [7]): 52.9 mg/dL
- Free fatty acids in blood (cows seized by ketosis; [7]): 201 μEq/l
- Acetoacetic acid in blood (cows seized by ketosis; [8]): 104 µmol/L
- Blood sugar level (cows seized by ketosis; [8]): 59.0 mg/dL
- Free fatty acids in blood (cows seized by ketosis; [8]): 351 μEq/l
- Acetoacetic acid in blood (cows seized by ketosis; [9]): 662 µmol/L
- Blood sugar level (cows seized by ketosis; [9]): 30.6 mg/dL
- Free fatty acids in blood (cows seized by ketosis; [9]): 1,148 μEq/l
- Ketone bodies in urine (cows seized by ketosis; [9]): +++
- Acetoacetic acid in blood (cows seized by ketosis; [10]): 1,344 μmol/1
- Blood sugar level (cows seized by ketosis; [10]): 34.3 mg/dL
- Free fatty acids in blood (cows seized by ketosis; [10]): 556.6 μEq/l
- Ketone bodies in urine (cows seized by ketosis; [10]): +
- Acetoacetic acid in blood (cows seized by ketosis; [11]): 608 μmol/1
- Blood sugar level (cows seized by ketosis; [11]): 43.3 mg/dL
- Free fatty acids in blood (cows seized by ketosis; [11]): 507.5 μEq/l
- Ketone bodies in urine (cows seized by ketosis; [11]): -
- Acetoacetic acid in blood (cows seized by ketosis; [12]): 102 μmol/1
- Blood sugar level (cows seized by ketosis; [12]): 64.8 mg/dL
- Free fatty acids in blood (cows seized by ketosis; [12]): 118.2 μEq/l
- Ketone bodies in urine (cows seized by ketosis; [12]): -
- Acetoacetic acid in blood (cows seized by ketosis; [13]): 1,550 μmol/1
- Blood sugar level (cows seized by ketosis; [13]): 33.6 mg/dL
- Free fatty acids in blood (cows seized by ketosis; [13]): 1,862.3 μEq/l
- Ketone bodies in urine (cows seized by ketosis; [13]): +++
- LD50 (male mice): 1,350 mg/kg

SMILES: CC(C)OC(=O)C(C(=O)OC(C)C)=C1SC(C(=O)O)S1 (stereo not shown) [compound 3]
- Acetoacetic acid in blood (cows seized by ketosis; [6]): 220 µmol/L
- Blood sugar level (cows seized by ketosis; [6]): 38.4 mg/dL
- Free fatty acids in blood (cows seized by ketosis; [6]): 416 μEq/l
- Ketone bodies in urine (cows seized by ketosis; [6]): ++
- Acetoacetic acid in blood (cows seized by ketosis; [7]): 816 µmol/L
- Blood sugar level (cows seized by ketosis; [7]): 34.0 mg/dL
- Free fatty acids in blood (cows seized by ketosis; [7]): 306 μEq/l
- Ketone bodies in urine (cows seized by ketosis; [7]): +
- Acetoacetic acid in blood (cows seized by ketosis; [8]): 400 µmol/L
- Blood sugar level (cows seized by ketosis; [8]): 43.3 mg/dL
- Free fatty acids in blood (cows seized by ketosis; [8]): 418 μEq/l
- Ketone bodies in urine (cows seized by ketosis; [8]): +
- Acetoacetic acid in blood (cows seized by ketosis; [9]): 628 µmol/L
- Blood sugar level (cows seized by ketosis; [9]): 33.0 mg/dL
- Free fatty acids in blood (cows seized by ketosis; [9]): 1,423 μEq/l
- Ketone bodies in urine (cows seized by ketosis; [9]): +++
- LD50 [1]: > 5000 mg/kg

SMILES: CCOC(=O)C(C(=O)OC(C)C)=C1SCS1 [compound 2]
- LD50 [1]: > 5000 mg/kg

SMILES: CC(C)OC(=O)C(C(=O)OC(C)C)=C1SC=CS1 [compound 4]
- Acetoacetic acid in blood (cows seized by ketosis; [14]): 50 µmol/L
- Blood sugar level (cows seized by ketosis; [14]): 40.3 mg/dL
- Free fatty acids in blood (cows seized by ketosis; [14]): 428 μEq/l
- Ketone bodies in urine (cows seized by ketosis; [14]): ++
- Acetoacetic acid in blood (cows seized by ketosis; [15]): 142 µmol/L
- Blood sugar level (cows seized by ketosis; [15]): 55.4 mg/dL
- Free fatty acids in blood (cows seized by ketosis; [15]): 303 μEq/l
- Ketone bodies in urine (cows seized by ketosis; [15]): +
- Acetoacetic acid in blood (cows seized by ketosis; [16]): 146 µmol/L
- Blood sugar level (cows seized by ketosis; [16]): 57.7 mg/dL
- Free fatty acids in blood (cows seized by ketosis; [16]): 238 μEq/l
- Ketone bodies in urine (cows seized by ketosis; [16]): -
- Acetoacetic acid in blood (cows seized by ketosis; [17]): 446 µmol/L
- Blood sugar level (cows seized by ketosis; [17]): 43.2 mg/dL
- Free fatty acids in blood (cows seized by ketosis; [17]): 1,377 μEq/l
- Ketone bodies in urine (cows seized by ketosis; [17]): +++
- LD50 (male mice): 3,120 mg/kg
